# Reference: article PMC8765048 (JCI Insight, 2022)
# Where two headings read alike, the source gives them in different places.
# Columns and labels:
# SARS-CoV-2 WA1 = test: microbe, parasite or virus in culture; type: cell-based
# [1] = system: SARS-CoV-2 B.1.1.7 (Alpha); test: microbe, parasite or virus in culture; type: cell-based
# SARS-CoV-2 P.1 (Gamma) [2] = test: microbe, parasite or virus in culture; type: cell-based
# [3] = system: SARS-CoV-2 B.1.617.2 (Delta); test: microbe, parasite or virus in culture; type: cell-based
# SARS-CoV-2 P.2 (Zeta) = test: microbe, parasite or virus in culture; type: cell-based
# [4] = system: SARS-CoV-2 B.1.429 (Epsilon); test: microbe, parasite or virus in culture; type: cell-based
# SARS-CoV-2 P.1 (Gamma) [5] = test: microbe, parasite or virus in culture; type: cell-based; remark: listed apart in the source
# [6] = system: SARS-CoV-2 B.1.429 (Epsilon); test: microbe, parasite or virus in culture; type: cell-based; remark: listed apart in the source
# SARS-CoV-2 = test: Combinatorial sangivamycin/remdesivir efficacy testing, Calu-3 cells; type: cell-based; conditions: Severe acute respiratory syndrome coronavirus 2, Calu-3; read-out: IC50 (nM), S:R by [Sangivamycin]
# Huh-7 cells [7] = test: Mitochondrial dye cell imaging (MTG, NAO); type: cell-based, human; conditions: 100 nM for 5 d, MTG and NAO
# Excerpt: (§1) Other important measures of cell viability are mitochondrial integrity, function, cardiotoxicity, and genotoxicity, since other nucleoside analogs may vary in their effect on these endpoints ([29], [30]). Dyes commonly used to assess mitochondrial integrity are MitoTracker Green (MTG), a mitochondrial stain mostly localized to mitochondria based on hydrophobicity, and N-alkyl acridine orange (NAO), which binds to mitochondrial cardiolipin. Untreated Huh-7 cells and Huh-7 cells treated for 5 days with 100 nM sangivamycin were stained with MTG and NAO and imaged by fluorescence microscopy. […] To more quantitatively assess the impact of sangivamycin on mitochondrial integrity, we evaluated the effect of sangivamycin on mitochondrial metabolic function as well as cytoplasmic glycolytic function. The XF96e Seahorse instrument was used to quantify the oxygen consumption rate (OCR) over time in untreated control and sangivamycin-treated Huh-7 cells. […] Standard metabolic endpoints quantified with or without sangivamycin included sequential treatment and washout of cell cultures with oligomycin (ATP synthase inhibitor), carbonyl cyanide 4-(trifluoromethoxy)phenylhydrazone (FCCP; a proton gradient uncoupler), and antimycin A + rotenone (complex I and III blockers) (Supplemental Figure 7).
# Huh-7 cells were untreated or treated with 100 nM sangivamycin for 5 days. […]
# Huh-7 cells [8] = test: Acute mitochondrial or glycolytic stress assay (Seahorse XF96e); type: cell-based, human
# Excerpt: as §1, with “7). […]” for “7).”
# [9] = system: Lassa virus, Ebola virus, Marburg virus, cowpox virus and vaccinia virus; conditions: Vero E6 and Huh-7 cells; cited from earlier work
# grivets = conditions: 10 days at 1.6 mg/kg/d and 28 days at 0.4 mg/kg/d; cited from earlier work
# A549 (human lung) = test: CellTox Green Cytotoxicity Assay; conditions: ratio > 1 cytostatic, ≤ 1 cytotoxic
# [10] = system: Huh-7 (human hepatocarcinoma); test: CellTox Green Cytotoxicity Assay; conditions: ratio > 1 cytostatic, ≤ 1 cytotoxic
# [11] = system: Vero E6 (grivet kidney epithelial); test: CellTox Green Cytotoxicity Assay; conditions: ratio > 1 cytostatic, ≤ 1 cytotoxic
# [12] = Severe acute respiratory syndrome coronavirus 2, Vero C1008, 48 h
# [13] = Severe acute respiratory syndrome coronavirus 2, Vero C1008, 24 h
# [14] = Severe acute respiratory syndrome coronavirus 2, VeroE6/TMPRSS2, 18 h
# [15] = Severe acute respiratory syndrome coronavirus 2, Calu-3, 24 h
structure (smiles),measurement,setting,value
"NC(=O)c1cn([C@@H]2O[C@H](CO)[C@@H](O)[C@H]2O)c2ncnc(N)c12 [Sangivamycin, sangivamycin]",IC90,SARS-CoV-2 WA1; [12],0.064 ± 0.003 µM
same,IC50,"SARS-CoV-2 WA1; Severe acute respiratory syndrome coronavirus 2, Vero C1008, 48 h, read-out: IC50",0.034 ± 0.001 µM
same,IC50,"SARS-CoV-2 WA1; Severe acute respiratory syndrome coronavirus 2, Vero C1008, read-out: average IC50",0.052 ± 0.013 µM
same,"SI (selectivity index, CC50/IC50)","SARS-CoV-2 WA1; WA1, Vero E6 cells",14.4
same,"SI (selectivity index, CC50/IC50)","[1]; B.1.1.7 (Alpha), Vero E6 cells",>39.0
same,IC50,[1]; [13],0.0154 µM
same,IC90,[1]; [13],0.164 µM
same,"SI (selectivity index, CC50/IC50)","SARS-CoV-2 P.1 (Gamma) [2]; P.1 (Gamma), Vero E6 cells",>22.2
same,IC50,SARS-CoV-2 P.1 (Gamma) [2]; [13],0.0271 µM
same,IC90,SARS-CoV-2 P.1 (Gamma) [2]; [13],0.245 µM
same,IC50,[3],0.0804 µM
same,"SI (selectivity index, CC50/IC50)","[3]; B.1.617.2 (Delta), Vero E6/TMPRSS2 cells",>7.5
same,IC50,[3]; [14],0.08 µM
same,IC90,[3]; [14],0.263 µM
same,"SI (selectivity index, CC50/IC50)","SARS-CoV-2 P.2 (Zeta); P.2 (Zeta), Vero E6 cells",>20.1
same,IC50,SARS-CoV-2 P.2 (Zeta); [13],0.0298 µM
same,IC90,SARS-CoV-2 P.2 (Zeta); [13],0.125 µM
same,"SI (selectivity index, CC50/IC50)","[4]; B.1.429 (Epsilon), Vero E6 cells",>8.2
same,IC50,[4]; [12],0.0728 µM
same,IC90,[4]; [12],0.465 µM
same,"SI (selectivity index, CC50/IC50)","SARS-CoV-2 P.1 (Gamma) [5]; P.1 (Gamma), Calu-3 cells",>9.5
same,IC50,SARS-CoV-2 P.1 (Gamma) [5]; [15],0.0633 µM
same,IC90,SARS-CoV-2 P.1 (Gamma) [5]; [15],0.204 µM
same,"SI (selectivity index, CC50/IC50)","[6]; B.1.429 (Epsilon), Calu-3 cells",>8.4
same,IC50,[6]; [15],0.0711 µM
same,IC90,[6]; [15],0.234 µM
same,IC50,SARS-CoV-2,69.6 nM
same,Effect on mitochondrial integrity (imaging with mitochondrial dyes),Huh-7 cells [7],Negative
same,Effect on mitochondrial integrity (imaging with mitochondrial dyes),Huh-7 cells [7]; listed as sangivamycin,did not significantly affect mitochondrial structural integrity
same,Acute effects on mitochondrial and glycolytic stress (Seahorse measurements),Huh-7 cells [8]; 0.05–5 μM,>5 µM
same,oxygen consumption rate (OCR) relative to untreated control cells,Huh-7 cells [8]; up to 5 μM,did not significantly change the OCR
same,IC50,[9],nanomolar range
same,tolerability,grivets,tolerated
same,Ratio CellTox Green/CellTiter-Glo,A549 (human lung),>28.9
same,Ratio CellTox Green/CellTiter-Glo,[10],>10.3
same,Ratio CellTox Green/CellTiter-Glo,[11],>10.2
